In this test the test system is OA articular chondrocytes. As to the kind of experiment: OA chondrocyte phenotype gene expression screening of BMP-7 peptides (RT-qPCR). The class given is cell-based, human. The arrangement: key to COX-2 / COL2A1 / SOX9: [+] denotes a significantly increased expression of chondrogenic marker genes SOX9 and COL2A1, or a significantly decreased expression of OA phenotypic marker COX-2 in OA articular chondrocytes, in comparison to untreated OA articular chondrocytes; key to IL-6 / ADAMTS5 / COL10A / BAPX1/NKX3.2 / ALP / RUNX2: —: [-] denotes the absence of a significant effect or a significantly decreased expression of chondrogenic marker genes BAPX1/NKX3.2, or a significantly increased expression of OA phenotypic markers IL-6, ADAMTS5, COL10A, ALP and RUNX2 in OA articular chondrocytes, in comparison to untreated OA articular chondrocytes. The conditions noted are these: for suppression of the OA chondrocyte phenotype: independent of the tested concentration (1000, 100, 10 and 1 nM were tested); for COL2A1 / COX-2 / SOX9: Table 5; for activity in the assays as employed herein (table 2): peptides with additional amino acid N-terminal of position 100. Here is the method:
(§1) FIG. 2: The action of 20-mer peptides (10 nM) of SEQ ID NO: 2-17 (peptides with 1 or 2 amino acids intervals (18-19 amino acid overlap)) and a random peptide with a sequence according to SEQ ID NO: 49 on the expression of ADAMTS5 was determined on a validated pool of passage 2 OA human articular chondrocytes (n=18) and compared to full-length recombinant BMP-7 (1 nM). Samples were harvested after 24 hours and analyzed for indicated genes by RT-qPCR (normalized for 28S rRNA expression and relative to control conditions (no peptide exposure)). In the graphs, numbers on the x-axis represent individual peptides according to their SEQ ID NO's, error bars represent mean±SEM, statistical differences were calculated (one-way ANOVA with bonferroni correction) to control condition. *=p<0.05 lower than control condition for ADAMTS5. Random peptide is a peptide according to SEQ ID NO: 49.
as §1, with “3:” for “2:”, “ALP” for “ADAMTS5”, “ALP.” for “ADAMTS5.”
as §1, with “4:” for “2:”, “BAPX1/NKX3.2” for “ADAMTS5”, “BAPX1/NKX3.2.” for “ADAMTS5.”
as §1, with “5:” for “2:”, “COL10A1” for “ADAMTS5”, “COL10A1.” for “ADAMTS5.”
FIG. 6: The action of 20-mer peptides (10 nM) of SEQ ID NO: 2-17 (peptides with 1 or 2 amino acids intervals (18-19 amino acid overlap)) and a random peptide with a sequence according to SEQ ID NO: 49 on the expression of IL-6 was determined on a validated pool of passage 2 OA human articular chondrocytes (n=18) and compared to full-length recombinant BMP-7 (1 nM). […]

Setting [1] is: Table 2 (FIG. 2: 10 nM, 24 hours, RT-qPCR, 28S rRNA normalized), vs untreated OA articular chondrocytes.
[2] abbreviates: Table 2 (FIG. 3: 10 nM, 24 hours, RT-qPCR, 28S rRNA normalized), vs untreated OA articular chondrocytes.
[3] abbreviates: Table 2 (FIG. 4: 10 nM, 24 hours, RT-qPCR, 28S rRNA normalized), vs untreated OA articular chondrocytes.
Setting [4] is: Table 2 (FIG. 5: 10 nM, 24 hours, RT-qPCR, 28S rRNA normalized), vs untreated OA articular chondrocytes.
[5] abbreviates: Table 2 (FIG. 6: 10 nM, 24 hours, RT-qPCR, 28S rRNA normalized), vs untreated OA articular chondrocytes.
[6] abbreviates: Table 2 (FIG. 7: 10 nM, 24 hours, RT-qPCR, 28S rRNA normalized), vs untreated OA articular chondrocytes.
The mark [7] stands for this setting: Table 1, gene expression in OA articular chondrocytes vs untreated.
[8] abbreviates: gene expression in OA articular chondrocytes vs untreated.

“TQLNAISVLYFDDSSNVILK (listed as Homo sapiens) [SEQ ID NO: 10]”: the “suppression of the OA chondrocyte phenotype” value was “efficiently suppressed the OA chondrocyte phenotype”.

Turning to “5 (VPKPSSAPTQLNAISVLYFD; listed as Homo sapiens) [compound 5]”, the ADAMTS5 result under setting [1] was “—”. For the same substance, the ALP result under setting [2] is “—”. Besides, under setting [3], the BAPX1/NKX3.2 result is “—”. Also, under setting [4], the COL10A result is “—”. In addition, the IL-6 result under setting [5] was “—”. Besides, under setting [6], the RUNX2 entry was “+”.

For “SSNVILKKYRNMVVRASGSH (listed as Homo sapiens) [SEQ ID NO: 17]”, the “suppression of the OA chondrocyte phenotype” value was “efficiently suppressed the OA chondrocyte phenotype”.

“24 (AIVQTLVHFINPETVPKPCC; listed as Homo sapiens) [compound 24]”: under setting [7], the ADAMTS5 result is listed as “—”, the ALP result is recorded as “—”, the BAPX1/NKX3.2 result is reported as “—” and the COL10A entry was “—”. Also, under setting [7], the IL-6 result is “—” and the RUNX2 result is on record as “—”.

In the case of “13 (SVLYFDDSSNVILKKYRNMV; listed as Homo sapiens) [compound 13]”, under setting [1], the ADAMTS5 result is “+”. Further, under setting [2], the ALP result is reported as “+”. The BAPX1/NKX3.2 entry under setting [3] is recorded as “+”. The COL10A result under setting [4] is given as “+”. Also, the IL-6 result under setting [5] is on record as “+”. For the same substance, the RUNX2 result under setting [6] was “+”. In addition, under setting [8], the COL2A1 result is “+”, the COX-2 entry is reported as “+” and the SOX9 entry is “+”.

On to “10 (TQLNAISVLYFDDSSNVILK; listed as Homo sapiens) [compound 10]”, for which the ADAMTS5 result under setting [1] is recorded as “+”. Under setting [2], the ALP result is reported as “+”. Further, under setting [3], the BAPX1/NKX3.2 result is listed as “+”. The COL10A result under setting [4] is on record as “-”. In addition, the IL-6 result under setting [5] was “+”. In addition, the RUNX2 result under setting [6] was “+”. Besides, under setting [8], the COL2A1 result is listed as “+”, the COX-2 result is given as “+” and the SOX9 result is “+”.

For the substance “1 (FINPETVPKPSSAPTQLNAISVLYFDDSSNVILKKYRNMVVRASGSH; listed as Homo sapiens) [compound 1]”, under setting [1], the ADAMTS5 entry is “—”. Under setting [2], the ALP entry is recorded as “—”. The BAPX1/NKX3.2 result under setting [3] is recorded as “—”. In addition, under setting [4], the COL10A entry is on record as “—”. Also, under setting [5], the IL-6 entry was “—”. Moreover, under setting [6], the RUNX2 result is “—”.

In the case of “ETVPKPSSAPTQLNAISVLY (listed as Homo sapiens) [SEQ ID NO: 4]”, the “activity in the assays as employed herein (table 2)” value was “lost its activity”.

Turning to “12 (AISVLYFDDSSNVILKKYRN; listed as Homo sapiens) [compound 12]”, under setting [1], the ADAMTS5 entry is on record as “+”. For the same substance, under setting [2], the ALP result was “+”. The BAPX1/NKX3.2 result under setting [3] was “+”. Also, under setting [4], the COL10A result is listed as “+”. For the same substance, the IL-6 result under setting [5] is given as “+”. The RUNX2 result under setting [6] is reported as “+”. In addition, under setting [8], the COL2A1 entry was “+”, the COX-2 entry is reported as “+” and the SOX9 result is “+”.

For the substance “26 (SSNVILKKYRNMVVRACGCH; listed as Homo sapiens) [compound 26]”, under setting [7], the ADAMTS5 result is “—”, the ALP result is “—”, the BAPX1/NKX3.2 result is reported as “—” and the COL10A result is “—”. Under setting [7], the IL-6 entry is recorded as “—” and the RUNX2 entry is “—”.

Turning to “14 (LYFDDSSNVILKKYRNMVVR; listed as Homo sapiens) [compound 14]”, the ADAMTS5 entry under setting [1] is reported as “+”. Further, the ALP result under setting [2] is given as “+”. Further, the BAPX1/NKX3.2 entry under setting [3] was “+”. Besides, the COL10A result under setting [4] is recorded as “+”. Moreover, under setting [5], the IL-6 result is given as “+”. For the same substance, the RUNX2 entry under setting [6] is “—”. Moreover, under setting [8], the COL2A1 entry is on record as “+”, the COX-2 entry is reported as “+” and the SOX9 result was “+”.

As for “FINPETVPKPSSAPTQLNAI (listed as Homo sapiens) [SEQ ID NO: 2]”, the “activity in the assays as employed herein (table 2)” value was “lost its activity”.

As for “4 (ETVPKPSSAPTQLNAISVLY; listed as Homo sapiens) [compound 4]”, the ADAMTS5 result under setting [1] is “—”. In addition, the ALP entry under setting [2] is given as “—”. Moreover, under setting [3], the BAPX1/NKX3.2 result was “—”. Also, the COL10A entry under setting [4] is recorded as “—”. For the same substance, the IL-6 entry under setting [5] is “—”. Also, the RUNX2 result under setting [6] is given as “—”.

“2 (FINPETVPKPSSAPTQLNAI; listed as Homo sapiens) [compound 2]”: the ADAMTS5 result under setting [1] is “—”. Besides, the ALP result under setting [2] is recorded as “—”. In addition, the BAPX1/NKX3.2 result under setting [3] is “—”. Further, under setting [4], the COL10A result is reported as “—”. In addition, under setting [5], the IL-6 entry is reported as “—”. In addition, the RUNX2 entry under setting [6] is given as “—”.

With “15 (FDDSSNVILKKYRNMVVRAS; listed as Homo sapiens) [compound 15]”, under setting [1], the ADAMTS5 result is “+”. Also, the ALP entry under setting [2] is “+”. Under setting [3], the BAPX1/NKX3.2 result is recorded as “+”. Besides, under setting [4], the COL10A entry is listed as “+”. The IL-6 result under setting [5] was “+”. Further, under setting [6], the RUNX2 result was “—”. Further, under setting [8], the COL2A1 result was “+”, the COX-2 entry is “+” and the SOX9 entry is “+”.

As to “8 (SSAPTQLNAISVLYFDDSSN; listed as Homo sapiens) [compound 8]”, the ADAMTS5 result under setting [1] is “+”. The ALP entry under setting [2] was “+”. Besides, under setting [3], the BAPX1/NKX3.2 entry is “+”. For the same substance, the COL10A result under setting [4] is “+”. In addition, the IL-6 result under setting [5] is “+”. The RUNX2 result under setting [6] is given as “+”. For the same substance, under setting [8], the COL2A1 result is “+”, the COX-2 result is listed as “+” and the SOX9 entry is listed as “+”.

Consider “19 (STGSKQRSQNRSKTPKNQEA; listed as Homo sapiens) [compound 19]”, for which, under setting [7], the ADAMTS5 entry is reported as “—”, the ALP result is recorded as “—”, the BAPX1/NKX3.2 result is recorded as “—” and the COL10A entry is given as “—”. Under setting [7], the IL-6 entry was “—” and the RUNX2 entry was “—”.

Regarding “18 (PKPSSAPTQLNAISVLYFDDSSNVILKKYRNMVVRASGSH; listed as Homo sapiens) [compound 18]”, the ADAMTS5 result under setting [1] is given as “+”. Further, the ALP result under setting [2] was “+”. The BAPX1/NKX3.2 entry under setting [3] is recorded as “+”. Further, under setting [4], the COL10A entry is reported as “+”. Also, the IL-6 entry under setting [5] was “+”. Moreover, the RUNX2 result under setting [6] is “+”.
